According to patent US20200129533A1, “PHARMACEUTICAL NANOSUSPENSION FOR THE THERAPY OF HIV INFECTION” (priority 2017, published 2020):
Like-named read-outs stand apart in the source and are kept apart here.

Columns and labels:
Format in all cases: cell-based
[1] = tested on: HIV-1 mutant virus L100I/K103N; experiment: Inhibition of replication of HIV-1 mutant virus L100I/K103N; conditions: Human immunodeficiency virus 1, read-out: Average IC50
Method: (§1) Elsulfavirine/Elpida/VM-1500 (la) is the prodrug of the active compound VM-1500A (1b), a Non-Nucleoside Reverse Transcriptase Inhibitor (NNRTI), which efficiently prevents HIV-1 HXB2 strain replication in the MT-4 cell line. […] 0.6±0.6 nM (G190A), 1.3±0.3 nM (L100I/K103N), and 1.3±0.4 nM (K103N/Y181C)

[2] = tested on: HIV-1 mutant virus K103N/Y181C; experiment: Inhibition of replication of HIV-1 mutant virus K103N/Y181C; conditions: Human immunodeficiency virus 1, read-out: Average IC50
Method: as §1

[3] = tested on: HIV-1 mutant virus V106A; experiment: Inhibition of replication of HIV-1 mutant virus V106A; conditions: Human immunodeficiency virus 1, read-out: Average IC50
Method: as §1

[4] = tested on: HIV-1 HXB2 strain; experiment: Inhibition of HIV-1 HXB2 (wild-type) replication in MT-4 cell line
Method: as §1

[5] = tested on: HIV-1 mutant virus G190A; experiment: Inhibition of replication of HIV-1 mutant virus G190A; conditions: Human immunodeficiency virus 1, read-out: Average IC50
Method: as §1

Work on `N#Cc1cc(Cl)cc(Oc2c(Br)ccc(CC(=O)Nc3ccc(S(N)(=O)=O)cc3Cl)c2F)c1` [VM-1500A] yielded an IC50 [1] of 1.3 ± 0.3 nM, an IC50 [2] of 1.3 ± 0.4 nM and an IC50 [3] of 1.2 ± 0.2 nM. The IC50 ([4]; Human immunodeficiency virus 1, HXB2, MT4, as restated, converted to ng/ml, read-out: effective concentration (IC50)) was 0.74 ng/mL, the IC50 ([4]; Human immunodeficiency virus 1, HXB2, MT4, as restated, read-out: effective concentration (IC50)) was 1.3 nM and the IC50 ([4]; Human immunodeficiency virus 1, MT4, wild-type HXB2 strain, MT-4 cell line, read-out: Average IC50) was 1.3 ± 0.4 nM. The IC50 [5] was 0.6 ± 0.6 nM.
